According to patent US12668600B2 (Kumquat Biosciences Inc., priority 2023, dated 2026):

Tests used:
Format in all cases: biochemical
KRAS G12D = molecular target: T1, KRAS G12D (Homo sapiens, UniProt P01116, G12D); experiment: HTRF KRAS-SOS1 interaction assay, KRAS G12D; conditions: binned ≤2 μM / >2 μM, read-out: Inhibition of KRAS G12D (IC50)
T1 construct: made in house; host or cells: E. coli, e.g. BL21 (DE3)
Method in brief: (§1)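 GST-tagged KRAS (WT or mutant) with anti-GST-Eu donor and His-hSOS1 with anti-6His-XL665 acceptor were combined in 5 mM HEPES pH 7.4, 150 mM NaCl, 1 mM DTT, 0.05% BSA, 0.0025% Igepal. After ~10 min, HTRF was read (ex 337, em 620/665 nm); IC50 from 665/620 ratio.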

KRAS WT = molecular target: T2, KRAS WT (Homo sapiens, UniProt P01116); experiment: HTRF KRAS-SOS1 interaction assay, wildtype KRAS; conditions: binned ≤2 μM / >2 μM, read-out: Inhibition of KRAS WT (IC50)
T2 construct: made in house; host or cells: E. coli, e.g. BL21 (DE3)
T2 sequence (P01116 1-188 isoform P01116-2): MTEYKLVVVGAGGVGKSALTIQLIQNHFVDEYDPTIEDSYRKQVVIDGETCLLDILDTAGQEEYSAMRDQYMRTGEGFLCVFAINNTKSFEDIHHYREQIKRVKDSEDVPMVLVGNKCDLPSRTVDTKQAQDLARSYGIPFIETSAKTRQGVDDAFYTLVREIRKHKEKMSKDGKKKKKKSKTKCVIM
Method in brief: as §1

KRAS G12V = molecular target: T3, KRAS G12V (Homo sapiens, UniProt P01116, G12V); experiment: HTRF KRAS-SOS1 interaction assay, KRAS G12V; conditions: binned ≤2 μM / >2 μM, read-out: Inhibition of KRAS G12V (IC50)
T3 construct: made in house; host or cells: E. coli, e.g. BL21 (DE3)
T3 sequence (P01116 1-188 isoform P01116-2 G12V): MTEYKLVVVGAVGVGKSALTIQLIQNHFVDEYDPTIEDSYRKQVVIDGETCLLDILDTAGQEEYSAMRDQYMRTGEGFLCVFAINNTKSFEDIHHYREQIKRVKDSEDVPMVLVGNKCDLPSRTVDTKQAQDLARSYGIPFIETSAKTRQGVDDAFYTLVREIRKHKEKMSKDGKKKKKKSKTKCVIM
Method in brief: as §1

KRAS G12S = molecular target: T4, KRAS G12S (Homo sapiens, UniProt P01116, G12S); experiment: HTRF KRAS-SOS1 interaction assay, KRAS G12S; conditions: binned ≤2 μM / >2 μM, read-out: Inhibition of KRAS G12S (IC50)
T4 construct: made in house; host or cells: E. coli, e.g. BL21 (DE3)
T4 sequence (P01116 1-188 isoform P01116-2 G12S): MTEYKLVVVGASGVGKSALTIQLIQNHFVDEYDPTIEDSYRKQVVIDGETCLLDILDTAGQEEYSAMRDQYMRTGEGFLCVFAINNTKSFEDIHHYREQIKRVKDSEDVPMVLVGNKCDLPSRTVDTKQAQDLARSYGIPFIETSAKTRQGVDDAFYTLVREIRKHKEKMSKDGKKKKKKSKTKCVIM
Method in brief: as §1

T1 sequence (P01116 1-188 isoform P01116-2 G12D): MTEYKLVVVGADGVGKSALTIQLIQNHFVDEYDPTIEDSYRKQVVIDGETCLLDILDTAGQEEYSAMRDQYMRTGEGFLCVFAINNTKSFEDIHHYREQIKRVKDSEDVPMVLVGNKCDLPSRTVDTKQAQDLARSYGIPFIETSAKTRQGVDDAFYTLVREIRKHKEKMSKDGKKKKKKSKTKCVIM

Row | Compound | IC50 (KRAS G12D) [nM] | IC50 (KRAS WT) [nM] | IC50 (KRAS G12V) [nM] | IC50 (KRAS G12S) [nM]
1 | C[C@H](c1cccnc1N)N1CCOc2c(C(F)(F)F)c(-c3ccc(F)c4sc(N)c(C#N)c34)c(F)c3nc(OC[C@@]45CCCN4CC(C#N)C5)nc1c23 (stereo partly drawn) [Compound 852, (7aS)-7a-(((9-(2-amino-3-cyano-7-fluorobenzo[b]thiophen-4-yl)-4-((R)-1-(2-aminopyridin-3-yl)ethyl)-10-fluoro-8-(trifluoromethyl)-5,6-dihydro-4H-[1,4]oxazepino[5,6,7-de]quinazolin-2-yl)oxy)methyl)hexahydro-1H-pyrrolizine-2-carbonitrile] | > 2000 | ≤ 2000 | > 2000 | > 2000
2 | C[C@H](c1cncnc1N)N1CCOc2c(C(F)(F)F)c(-c3cccc4sc(N)c(C#N)c34)c(F)c3nc(OC[C@@]45CCCN4C[C@H](F)C5)nc1c23 (single isomer, unassigned) [Compound 723] | ≤ 2000 | ≤ 2000 | ≤ 2000 | ≤ 2000
3 | C[C@H](c1cccnc1N)N1CCOc2c(Cl)c(-c3cccc4sc(N)c(C#N)c34)c(F)c3nc(OC[C@@H]4CCCN4C)nc1c23 [Compound 612, 2-amino-4-(4-((R)-1-(2-aminopyridin-3-yl)ethyl)-8-chloro-10-fluoro-2-(((S)-1-methylpyrrolidin-2-yl)methoxy)-5,6-dihydro-4H-[1,4]oxazepino[5,6,7-de]quinazolin-9-yl)benzo[b]thiophene-3-carbonitrile] | ≤ 2000 | ≤ 2000 | ≤ 2000 | ≤ 2000
4 | C[C@H](c1cc(C#N)cnc1N)N1CCOc2c(Cl)c(-c3ccc(F)c4sc(N)c(C#N)c34)c(F)c3nc(OC[C@@]45CCCN4C[C@H](F)C5)nc1c23 [Compound 873, 6-amino-5-((1R)-1-(9-(2-amino-3-cyano-7-fluorobenzo[b]thiophen-4-yl)-8-chloro-10-fluoro-2-(((2R,7aS)-2-fluorotetrahydro-1H-pyrrolizin-7a(5H)-yl)methoxy)-5,6-dihydro-4H-[1,4]oxazepino[5,6,7-de]quinazolin-4-yl)ethyl)nicotinonitrile] | ≤ 2000 | ≤ 2000 | ≤ 2000 | ≤ 2000
5 | N#Cc1c(N)sc2c(F)ccc(-c3c(C(F)(F)F)c4c5c(nc(OC[C@@]67CCCN6CC(=C(F)F)C7)nc5c3F)N([C@H](CCC3CCOCC3)c3cccnc3N)CCO4)c12 [Compound 808, 2-amino-4-(4-((R)-1-(2-aminopyridin-3-yl)-3-(tetrahydro-2H-pyran-4-yl)propyl)-2-(((S)-2-(difluoromethylene)tetrahydro-1H-pyrrolizin-7a(5H)-yl)methoxy)-10-fluoro-8-(trifluoromethyl)-5,6-dihydro-4H-[1,4]oxazepino[5,6,7-de]quinazolin-9-yl)-7-fluorobenzo[b]thiophene-3-carbonitrile] | ≤ 2000 | ≤ 2000 | ≤ 2000 | ≤ 2000
6 | C[C@H](c1cccnc1N)N1CCOc2c(C(F)(F)F)c(-c3ccc(F)c4sc(N)c(C#N)c34)c(F)c3nc(OC[C@@]45CCCN4CC(=C(F)F)C5)nc1c23 [Compound 856, 2-amino-4-(4-((R)-1-(2-aminopyridin-3-yl)ethyl)-2-(((S)-2-(difluoromethylene)tetrahydro-1H-pyrrolizin-7a(5H)-yl)methoxy)-10-fluoro-8-(trifluoromethyl)-5,6-dihydro-4H-[1,4]oxazepino[5,6,7-de]quinazolin-9-yl)-7-fluorobenzo[b]thiophene-3-carbonitrile] | ≤ 2000 | ≤ 2000 | ≤ 2000 | ≤ 2000
7 | C[C@H](c1cccnc1N)N1c2nc(OC[C@@]34CCCN3C[C@H](F)C4)nc3c(F)c(-c4ccc(F)c5sc(N)c(C#N)c45)c(Cl)c(c23)OC[C@@H]1C [Compound 800, 2-amino-4-((5S)-4-((R)-1-(2-aminopyridin-3-yl)ethyl)-8-chloro-10-fluoro-2-(((2R,7aS)-2-fluorotetrahydro-1H-pyrrolizin-7a(5H)-yl)methoxy)-5-methyl-5,6-dihydro-4H-[1,4]oxazepino[5,6,7-de]quinazolin-9-yl)-7-fluorobenzo[b]thiophene-3-carbonitrile] | ≤ 2000 | ≤ 2000 | ≤ 2000 | ≤ 2000
8 | C[C@H](c1cc(Cl)cnc1N)N1CCOc2c(C(F)(F)F)c(-c3ccc(F)c4sc(N)c(C#N)c34)c(F)c3nc(OCC4(CN5CCC(=CF)CC5)CC4)nc1c23 [Compound 819, 2-amino-4-(4-((R)-1-(2-amino-5-chloropyridin-3-yl)ethyl)-10-fluoro-2-((1-((4-(fluoromethylene)piperidin-1-yl)methyl)cyclopropyl)methoxy)-8-(trifluoromethyl)-5,6-dihydro-4H-[1,4]oxazepino[5,6,7-de]quinazolin-9-yl)-7-fluorobenzo[b]thiophene-3-carbonitrile] | ≤ 2000 | ≤ 2000 | ≤ 2000 | ≤ 2000

The remaining lines, values ahead:

Row | IC50 (KRAS G12D) [nM] | IC50 (KRAS WT) [nM] | IC50 (KRAS G12V) [nM] | IC50 (KRAS G12S) [nM] | Compound
9 | ≤ 2000 | ≤ 2000 | ≤ 2000 | ≤ 2000 | C[C@H](c1ccc(CN)nc1N)N1CCOc2c(Cl)c(-c3ccc(F)c4sc(N)c(C#N)c34)c(F)c3nc(OC[C@@]45CCCN4C[C@H](F)C5)nc1c23 [Compound 813, 2-amino-4-(4-((R)-1-(2-amino-6-(aminomethyl)pyridin-3-yl)ethyl)-8-chloro-10-fluoro-2-(((2R,7aS)-2-fluorotetrahydro-1H-pyrrolizin-7a(5H)-yl)methoxy)-5,6-dihydro-4H-[1,4]oxazepino[5,6,7-de]quinazolin-9-yl)-7-fluorobenzo[b]thiophene-3-carbonitrile]
10 | ≤ 2000 | ≤ 2000 | ≤ 2000 | ≤ 2000 | C=CCC(c1cccnc1N)N1CCOc2c(Cl)c(-c3ccc(F)c4sc(N)c(C#N)c34)c(F)c3nc(OC[C@@]45CCCN4C[C@H](F)C5)nc1c23 (mixture of isomers) [Compound 623, 2-amino-4-((9R)-4-(1-(2-aminopyridin-3-yl)but-3-en-1-yl)-8-chloro-10-fluoro-2-(((2R,7aS)-2-fluorotetrahydro-1H-pyrrolizin-7a (5H)-yl)methoxy)-5,6-dihydro-4H-[1,4]oxazepino[5,6,7-de]quinazolin-9-yl)-7-fluorobenzo[b]thiophene-3-carbonitrile]
11 | ≤ 2000 | ≤ 2000 | ≤ 2000 | ≤ 2000 | C=C[C@H](c1cccnc1N)N1CCOc2c(Cl)c(-c3ccc(F)c4sc(N)c(C#N)c34)c(F)c3nc(OC[C@@]45CCCN4C[C@H](F)C5)nc1c23 [Compound 759, 2-amino-4-(4-((R)-1-(2-aminopyridin-3-yl)allyl)-8-chloro-10-fluoro-2-(((2R,7aS)-2-fluorotetrahydro-1H-pyrrolizin-7a(5H)-yl)methoxy)-5,6-dihydro-4H-[1,4]oxazepino[5,6,7-de]quinazolin-9-yl)-7-fluorobenzo[b]thiophene-3-carbonitrile]
12 | ≤ 2000 | ≤ 2000 | ≤ 2000 | ≤ 2000 | N#Cc1c(N)sc2cccc(-c3c(Cl)c4c5c(nc(OC[C@@]67CCCN6C[C@H](F)C7)nc5c3F)N([C@@H](c3cccnc3N)C(F)F)CCO4)c12 (single isomer, unassigned) [Compound 672]
13 | ≤ 2000 | ≤ 2000 | ≤ 2000 | ≤ 2000 | CCN(CC)CCC[C@H](c1cccnc1N)N1CCOc2c(C(F)(F)F)c(-c3ccc(F)c4sc(NC)c(C#N)c34)c(F)c3nc(OC[C@@]45CCCN4C[C@H](F)C5)nc1c23 (single isomer, unassigned) [Compound 832]
